The source made the active and inactive calls. No cut-off for these calls is given here.
Columns and labels:
[1] = Displacement of Cy5-labelled (position-4) ATP from human HSP70 expressed in Escherichia coli BL21(DE3) after 16 hrs by microarray assay
[2] = Displacement of Cy5-labelled (position-4) ATP from Mycobacterium tuberculosis HSP70 expressed in Escherichia coli BL21(DE3) after 16 hrs by microarray assay
[3] = species: Homo sapiens; experiment: Binding affinity to human HSP70 expressed in Escherichia coli BL21(DE3) at 100 uM after 16 hrs microarray assay

Compound | EC50 [1] [nM] | Kd [1] [nM] | Kd [2] [nM] | further results
Nc1ncnc2c1ncn2[C@@H]1O[C@H](COP(=O)(O)OP(=O)(O)OP(=O)(O)O)[C@@H](O)[C@H]1O [ADENOSINE TRIPHOSPHATE] | 1 | 37 | 37 | EC50 [2]: 1 nM
CC[N+]1=C(/C=C/C=C/C=C2/N(CCCCCC(=O)NCCCCCCNc3nc4c(N)ncnc4n3[C@@H]3O[C@H](COP(=O)(O)OP(=O)(O)OP(=O)(O)O)[C@@H](O)[C@H]3O)c3ccc(S(=O)(=O)O)cc3C2(C)C)C(C)(C)c2cc(S(=O)(=O)[O-])ccc21 | – | 2300 | – | –
COc1ccc(-c2c(OC)c(O)c(-c3ccc(O)cc3)c(O)c2OC)cc1 | 29000 | – | – | –
COc1ccc(-c2c(O)c(O)c(-c3ccc(OC)cc3)c(OC)c2OC)cc1 | 49000 | – | – | –
CC[N+]1=C(/C=C/C=C/C=C2/N(CCCCCC(=O)NCCCCCCNP(=O)(O)OP(=O)(O)OP(=O)(O)OC[C@H]3O[C@@H](n4cnc5c(N)ncnc54)[C@H](O)[C@@H]3O)c3ccc(S(=O)(=O)O)cc3C2(C)C)C(C)(C)c2cc(S(=O)(=O)[O-])ccc21 | – | – | – | Activity [3]: inactive
CC[N+]1=C(/C=C/C=C/C=C2/N(CCCCCC(=O)NCCCCCCNc3ncnc4c3ncn4[C@@H]3O[C@H](COP(=O)(O)OP(=O)(O)OP(=O)(O)O)[C@@H](O)[C@H]3O)c3ccc(S(=O)(=O)O)cc3C2(C)C)C(C)(C)c2cc(S(=O)(=O)[O-])ccc21 | 484 | – | 30600 | –
